Data on four molecules can be found in ChEMBL document CHEMBL3414489, “3,4-Diaza-bicyclo[4.1.0]hept-4-en-2-one phenoxypropylamine analogs of irdabisant (CEP-26401) as potent histamine-3 receptor inverse agonists with robust wake-promoting activity” (Eur J Med Chem, 2015).

Data set [1] concerns the target Histamine H3 receptor (Homo sapiens, UniProt Q9Y5N1). As to the kind of experiment: Binding affinity to human histamine H3 receptor.
In data set [2] the target is Histamine H3 receptor (Rattus norvegicus, UniProt Q9QYN8). Kind of data set: Binding affinity to rat histamine H3 receptor.
Data set [3] in a line: Half life in mouse liver microsomes. The format is ADME. For orientation: Liver microsomes are vesicles of endoplasmic reticulum, rich in cytochrome P450 enzymes.
A short description of data set [4]: Half life in rat liver microsomes. The format is ADME.
Data set [5] can be described thus: Half life in dog liver microsomes. Format: ADME, Canis lupus familiaris.
Data set [6] in a line: Half life in monkey liver microsomes. The format is ADME, Macaca mulatta. The settings on record: rhesus monkey.
A short description of data set [7]: Half life in human liver microsomes. The format is ADME.
In another data set the target is T1, Cytochrome P450 1A2 (Homo sapiens, UniProt P05177).
T1 sequence (P05177 whole entry): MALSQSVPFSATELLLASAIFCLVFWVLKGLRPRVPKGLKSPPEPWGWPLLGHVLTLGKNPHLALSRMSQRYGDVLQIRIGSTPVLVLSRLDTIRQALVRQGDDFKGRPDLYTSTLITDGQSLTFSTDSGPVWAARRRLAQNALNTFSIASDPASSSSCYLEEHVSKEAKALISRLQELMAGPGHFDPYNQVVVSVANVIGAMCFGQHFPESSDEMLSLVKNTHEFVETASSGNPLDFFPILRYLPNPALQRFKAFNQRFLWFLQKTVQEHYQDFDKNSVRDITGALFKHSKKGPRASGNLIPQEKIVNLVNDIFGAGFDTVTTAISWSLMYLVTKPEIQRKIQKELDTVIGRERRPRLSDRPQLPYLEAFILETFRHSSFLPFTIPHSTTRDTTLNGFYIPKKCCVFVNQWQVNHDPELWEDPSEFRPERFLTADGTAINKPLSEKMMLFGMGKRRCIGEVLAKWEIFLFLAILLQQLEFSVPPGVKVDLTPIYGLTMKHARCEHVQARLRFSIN
Kind of data set: Inhibition of CYP1A2 (unknown origin). Format: ADME.

Data set [8] can be described thus: Oral bioavailability in rat. As to conditions: in vivo. Format: ADME, organism-based.
Data set [9] is described as follows: Half life in iv dosed rat. The settings on record: in vivo. The format is ADME, organism-based.
The nature of data set [10]: Clearance in iv dosed rat. Format: ADME, organism-based. The settings on record: in vivo.

Chain of Histamine H3 receptor (Rattus norvegicus, UniProt Q9QYN8) (Q9QYN8 whole entry): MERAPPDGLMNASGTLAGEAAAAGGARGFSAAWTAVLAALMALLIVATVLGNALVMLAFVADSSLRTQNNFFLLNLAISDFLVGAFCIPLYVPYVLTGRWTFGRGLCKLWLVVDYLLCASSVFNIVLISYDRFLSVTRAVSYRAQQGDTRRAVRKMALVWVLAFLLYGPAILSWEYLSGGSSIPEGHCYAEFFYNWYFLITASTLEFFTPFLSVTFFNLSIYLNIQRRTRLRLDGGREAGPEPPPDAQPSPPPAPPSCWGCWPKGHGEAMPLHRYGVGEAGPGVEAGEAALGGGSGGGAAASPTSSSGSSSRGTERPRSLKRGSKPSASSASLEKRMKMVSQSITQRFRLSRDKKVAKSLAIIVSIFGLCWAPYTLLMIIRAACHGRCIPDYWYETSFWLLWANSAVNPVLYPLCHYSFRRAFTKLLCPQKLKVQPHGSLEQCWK
Chain of Histamine H3 receptor (Homo sapiens, UniProt Q9Y5N1) (Q9Y5N1 whole entry): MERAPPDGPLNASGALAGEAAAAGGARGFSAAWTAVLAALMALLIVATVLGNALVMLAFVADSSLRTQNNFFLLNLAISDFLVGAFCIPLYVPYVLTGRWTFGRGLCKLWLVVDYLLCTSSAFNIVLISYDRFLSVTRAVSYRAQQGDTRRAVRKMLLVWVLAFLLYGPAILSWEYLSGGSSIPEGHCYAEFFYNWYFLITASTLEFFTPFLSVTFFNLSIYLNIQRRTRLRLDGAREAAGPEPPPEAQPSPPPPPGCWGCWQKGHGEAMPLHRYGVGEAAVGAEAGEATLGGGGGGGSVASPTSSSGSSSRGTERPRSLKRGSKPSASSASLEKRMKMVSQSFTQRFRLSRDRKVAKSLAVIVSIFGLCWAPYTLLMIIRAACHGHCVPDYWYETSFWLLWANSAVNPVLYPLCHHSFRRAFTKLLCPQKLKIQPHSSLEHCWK

As a reminder, the Ki is the dissociation constant of the complex between target and ligand, obtained from inhibition or displacement. With `O=C1NN=C(c2ccc(OCCCN3CCCCC3)cc2)C2CC12` (racemic), the Ki at Histamine H3 receptor [1] amounted to 19 nM; at Histamine H3 receptor [2], 54 nM.

As to `Cc1cc(OCCCN2CCC[C@@H]2C)ccc1C1=NNC(=O)C2CC12` (mixture of isomers), the Ki at Histamine H3 receptor [1] was found to be 49 nM; at Histamine H3 receptor [2], 103 nM.

For orientation: half-life means the time in which the quantity being followed falls by half. As a reminder, the IC50 is the midpoint of a concentration-inhibition curve. For orientation: bioavailability means dose-corrected exposure relative to a reference, in per cent. In general, clearance refers to the volume of plasma or blood freed of the substance per unit of time. As for `C[C@@H]1CCCN1CCCOc1ccc(C2=NNC(=O)C3CC23)cc1` (some centres not stated), the Ki on Histamine H3 receptor [1] worked out at 3.7 nM; on Histamine H3 receptor [2], 13 nM. Further, the half-life in data set [3] was over 40 min; in data set [4], over 40 min; in data set [5] it was over 40 min; in [6] it was over 40 min; in [7], over 40 min; in data set [9], 84 min. This molecule showed an IC50 against Cytochrome P450 1A2 of over 30000 nM. Also, the bioavailability in data set [8] is over 25%. In data set [10], this molecule returned a clearance of 11 mL/min/kg.

On to `Cc1cc(OCCCN2CCCCC2)ccc1C1=NNC(=O)C2CC12` (racemic), for which the values for the Ki on Histamine H3 receptor [1] and on Histamine H3 receptor [2] were 39 nM and 139 nM, respectively.
